The nature of data set [1]: Phase I metabolic stability in human liver microsomes (HLMs). Type of data set: in vitro ADME, humans. As to conditions: HLM; for Remaining rate (NCF = 60 min): buffer instead of NADPH regeneration system; for Remaining rate (T = 60 min): with NADPH; for CLint scaled at 1 µM / half-life at 1 M / microsomal CLint at 1 M: human, liver microsomes, pH 7.4; for microsomal CLint at 1 M: read-out: CLint (mic). Here is the method: (§1) Phase I metabolic stability of the test compounds in liver microsomes of CD-1 mice (MLMs), Sprague-Dawley rats (RLMs), beagle dogs (DLMs), cynomolgus monkeys (CLMs), and humans (HLMs) was evaluated.
(§2) The animal and human liver microsomes used in the test system were purchased from Xenotech, Corning, or other qualified suppliers and stored in a freezer at a temperature below −60° C. prior to use.
(§3) The test samples and control compounds were separately incubated with animal and human liver microsomes at 37±1° C. for a period of incubation time up to 60 min. The samples were removed at the indicated time points, and the reaction was stopped with acetonitrile or other organic solvents containing an internal standard. After centrifugation, the resulting supernatants were assayed by liquid chromatography-tandem mass spectrometry (LC-MS/MS).
(§4) 73.21 g of dipotassium hydrogenphosphate trihydrate and 10.78 g of potassium dihydrogenphosphate were dissolved in 4000 mL of ultrapure water. The solution was adjusted to pH 7.40±0.10 with 10% phosphoric acid or 1 M potassium hydroxide to make a final concentration of 100 mM.
(§5) The test sample powder was prepared into a stock solution at a certain concentration with DMSO or other organic solvents, which was then further diluted with a proper organic solvent.
(§6) Microsomes of each species were diluted into a 2× working solution with a 100 mM potassium phosphate buffer. The final concentration of the microsomes in the reaction system was 0.5 mg/mL.
(§7) An appropriate amount of nicotinamide adenine dinucleotide phosphate (NADP) and isocitric acid (ISO) powder was weighed out, dissolved in a magnesium chloride solution, and shaken and mixed well. An appropriate amount of isocitrate dehydrogenase (IDH) was added, and the mixture was mixed well by gently turning upside down. The final concentrations in the reaction system were: 1 mM NADP, 1 mM magnesium chloride, 6 mM ISO, and 1 unit/mL IDH.
(§8) Incubation was performed in a 96-well plate. Eight incubation plates were prepared and designated T0, T5, T15, T30, T45, T60, Blank60, and NCF60, respectively. The first 6 plates corresponded to reaction time points of 0, 5, 15, 30, 45, and 60 min, respectively. No test sample or control compound was added to the Blank60 plate, and samples were taken after 60 min of incubation. In the NCF60 plate, incubation was performed for 60 min using the potassium phosphate buffer instead of the NADPH regeneration system solution. Three replicates were made for samples in all conditions.
(§9) The microsomes and the test sample or control compound were mixed, and then the incubation plates Blank60, T5, T15, T30, T45, and T60 except for TO and NCF60 were placed in a 37° C. water bath for pre-incubation for about 10 min. In the incubation plate TO, a stop solution was first added, followed by addition of the NADPH regeneration system working solution, and 98 μL of the potassium phosphate buffer was added to each sample well of the incubation plate NCF60 to initiate the reaction. After the pre-incubations of the incubation plates Blank60, T5, T15, T30, T45, and T60 were completed, 98 μL of the NADPH regeneration system working solution was added to each sample well to initiate the reaction. The reaction temperature was 37±1° C., the final volume of the reaction was 200 μL, and the reaction system included 0.5 mg/mL microsomes, […], 1 mM NADP, 6 mM ISO, and 1 unit/mL IDH.
(§10) At 5 min, 15 min, 30 min, 45 min, and 60 min, a cold stop solution containing an internal standard was added to the reaction plate to stop the reaction.
(§11) All the reaction plates after the reaction was stopped were shaken well and centrifuged at 3220×g at 4° C. for 20 min. After the supernatant was diluted according to a certain proportion, LC-MS/MS analysis was performed.
(§12) Sample analysis was performed by the liquid chromatography-tandem mass spectrometry (LC-MS/MS) method without standard curves and quality control samples. […]
A general note: Liver microsomes are vesicles of endoplasmic reticulum, rich in cytochrome P450 enzymes.

Data set [2] relates to acetylation level of α-tubulin in HCT116 cells. Kind of data set: Assay on acetylation level of α-tubulin, HCT116 cells. Type of data set: cell-based. As to conditions: Homo sapiens, HCT-116, 6 h. The protocol: A375/HCT116/HCC827 cells at a logarithmic growth phase were taken, digested with a […] (trypsin), centrifuged, counted, and plated in a 96-well plate at an appropriate cell density (30,000 cells/well) at 100 µL/well, and an appropriate amount of PBS was added around the plate for water sealing. The next day, the cells were treated with the compounds at different concentrations (starting at 100 μM, 5-fold dilution, 9 concentration gradients). After 6 h, the medium was pipetted out and the cells were washed twice with 100 μL of PBST. The cells were then immobilized in 4% paraformaldehyde, and the plate was incubated at room temperature for 20 min. The stationary liquid was discarded and the cells were washed with PBST. 150 μL of special blocking buffer (containing 1% Triton-100) was added to each well for blocking at room temperature for 2 h, and the plate was washed with PBS to remove excess blocking buffer. α-tubulin (DM1A) mouse mAb and acetyl-α-tubulin (Lys40) (D20G3) XP rabbit mAb were diluted at a 1:2000 ratio with a blocking buffer containing 0.033% Triton-100. The dilutions were added to the 96-well plate and the plate was incubated overnight at 4° C. Meanwhile, a blank control group was set. The next day, the plate was washed twice with PBST. Secondary anti-mouse IgG (H+L) (DyLight™ 680 conjugate) and anti-rabbit IgG (H+L) (DyLight™ 800 conjugate) were diluted at a 1:2000 ratio with a blocking buffer containing 0.033% Triton-100. The dilutions were added to a 96-well plate and the plate was incubated at room temperature for 2 h. The plate was washed twice with PBST and once with PBS. Fluorescence signals at 700 nm and 800 nm were detected with a Li-COR Odyssey two-color near-infrared laser imager.

Data set [3] can be described thus: Phase I metabolic stability in mouse liver microsomes (MLMs). Type of data set: in vitro ADME, CD-1 mice. As to conditions: MLM; for CLint scaled at 1 µM / half-life at 1 M / microsomal CLint at 1 M: CD-1, mouse, liver microsomes, pH 7.4; for microsomal CLint at 1 M: read-out: CLint (mic); for Remaining rate (NCF = 60 min): buffer instead of NADPH regeneration system; for Remaining rate (T = 60 min): with NADPH. The protocol: as §1, §2, §3, §4, §5, §6, §7, §8, §9, §10, §11, §12

A short description of data set [4]: Phase I metabolic stability in rat liver microsomes (RLMs). Type of data set: in vitro ADME, Sprague-Dawley rats. As to conditions: RLM; for Remaining rate (NCF = 60 min): buffer instead of NADPH regeneration system; for Remaining rate (T = 60 min): with NADPH; for CLint scaled at 1 µM / half-life at 1 M / microsomal CLint at 1 µM: Sprague-Dawley, rat, liver microsomes, pH 7.4; for microsomal CLint at 1 µM: read-out: CLint (mic). The protocol:
as §1, §2, §3, §4, §5, §6, §7, §8, §9, §10, §11, §12

The values that follow come from US20250257060A1, “OXADIAZOLE COMPOUND, PHARMACEUTICAL COMPOSITION COMPRISING SAME, AND USE THEREOF” (SUZHOU GENHOUSE BIO CO., LTD., priority 2022, published 2025).

The structures appear in SMILES notation. Some results are limits rather than exact numbers.

The term CLint scaled denotes a measure of how fast metabolising enzymes remove a compound, apart from limits set by blood flow. A higher CLint scaled goes with faster metabolism. For orientation: half-life means the time needed for the level to fall by half in the phase considered. A lower half-life goes with fast loss. The term EC50 denotes the midpoint of the concentration-response curve. As to `CC(F)(F)C(=O)N[C@@H]1CCCC[C@H]1N1Cc2ccc(-c3nnc(C(F)F)o3)cc2S1(=O)=O` [Compound 1], in data set [1], the “Remaining rate (NCF = 60 min)” value is 83.4%, the “Remaining rate (T = 60 min)” value was 79.0%, the CLint scaled at 1 µM was below 8.6 mL/min/kg and the half-life at 1 M is above 2.42 h. The microsomal CLint at 1 M in data set [1] is below 9.6 µL/min/mg. Also, a half-maximal effect in data set [2] (EC50) was put at 262 nM. Also, in data set [3], the intrinsic metabolic clearance (CLint scaled) at 1 µM is below 38 mL/min/kg, the half-life at 1 M is above 2.42 h, the microsomal CLint at 1 M is below 9.6 µL/min/mg and the “Remaining rate (NCF = 60 min)” value was found to be 97.6%. For the same compound, the “Remaining rate (T = 60 min)” value in data set [3] is on record as 79.8%. Besides, in data set [4], the “Remaining rate (NCF = 60 min)” value was determined as 100.2%, the “Remaining rate (T = 60 min)” value worked out at 68.9%, the intrinsic clearance (CLint scaled) at 1 µM stood at 25.8 mL/min/kg and the half-life at 1 M stood at 1.61 h. For the same compound, in data set [4], the microsomal CLint at 1 µM amounted to 14.4 µL/min/mg.
In the case of `O=C(N[C@H]1[C@H](N2Cc3ccc(-c4nnc(C(F)F)o4)cc3S2(=O)=O)CCCC1(F)F)C(F)F` [Compound 61], in data set [1], the “Remaining rate (NCF = 60 min)” value stood at 86.25%, the “Remaining rate (T = 60 min)” value is on record as 85.62%, the intrinsic metabolic clearance (CLint scaled) at 1 µM is 7.26 mL/min/kg and the half-life at 1 M stood at 3.99 h. For the same compound, the EC50 in data set [2] came to 195 nM. In data set [3], the CLint scaled at 1 µM was 18.6 mL/min/kg, the half-life at 1 M is 4.9 h, the “Remaining rate (NCF = 60 min)” value stood at 83.81% and the “Remaining rate (T = 60 min)” value turned out to be 85.14%. Also, in data set [4], the “Remaining rate (NCF = 60 min)” value was found to be 88.24%, the “Remaining rate (T = 60 min)” value turned out to be 72.95%, the CLint scaled at 1 µM is 19.4 mL/min/kg and the half-life at 1 M is 2.14 h.
In the case of `O=C(N[C@@H]1CCCC[C@H]1N1Cc2ccc(-c3nnc(C(F)F)o3)cc2S1(=O)=O)C(F)F` [Compound 2], in data set [1], the “Remaining rate (NCF = 60 min)” value was 97.3%, the “Remaining rate (T = 60 min)” value came out at 86.1%, the intrinsic metabolic clearance (CLint scaled) at 1 µM was below 8.6 mL/min/kg and the half-life at 1 M is above 2.42 h. The microsomal CLint at 1 M in data set [1] is below 9.6 µL/min/mg. Further, the concentration for a half-maximal effect (EC50) in data set [2] is 140 ± 39.1 nM. In data set [3], the CLint scaled at 1 µM was below 38 mL/min/kg, the half-life at 1 M is above 2.42 h, the microsomal CLint at 1 M was below 9.6 µL/min/mg and the “Remaining rate (NCF = 60 min)” value was 99.8%. The “Remaining rate (T = 60 min)” value in data set [3] worked out at 84.8%. For the same compound, in data set [4], the “Remaining rate (NCF = 60 min)” value came to 93.0%, the “Remaining rate (T = 60 min)” value was 76.4%, the CLint scaled at 1 µM is below 17.3 mL/min/kg and the half-life at 1 M is above 2.42 h. Moreover, the microsomal CLint at 1 µM in data set [4] is below 9.6 µL/min/mg.
